Test results published in US11534452B2, “Nucleic acid molecules for reduction of PAPD5 or PAPD7 mRNA for treating hepatitis B infection” (HOFFMANN-LA ROCHE INC., priority 2016, dated 2022).
l = locked nucleic acid (LNA); d = 2'-deoxy (DNA)

Test system: HBV
Assay: HBsAg inhibition in HBV infected dHepaRG cells, gymnosis, single oligonucleotides and combinations (Examples 6-8, Tables 16-19)
Assay type: cell-based, hepatitis B virus
[1] = HBV infected dHepaRG cells, individual PAPD7 targeting compound (result from table 17)
[2] = individual PAPD7 compound of the combination, 20 μM, result taken from table 17

Q: “194_1 (GTAGGTAAAGGGCAAAGGAA; gapmer 3-15-2: modified flank nucleosides, DNA gap, modification type and linkages not given here)” was tested. Which “% HBsAg inhibition PAPD7 Avg” value [1] did it give?
A: −37.3%

Q: Which “% HBsAg inhibition PAPD7 Avg” value [1] does the source give for “195_1 (GTGAATTAAAGCCAAAGC; gapmer 2-12-4: modified flank nucleosides, DNA gap, modification type and linkages not given here)” here?
A: −39.2%

Q: With “197_1 (GAGGTTTTTTTTAGTGAATT; gapmer 2-14-4: modified flank nucleosides, DNA gap, modification type and linkages not given here)” as the substance, how does the “% HBsAg inhibition PAPD7 Avg” value [1] read?
A: −24.9%

Q: Which “% HBsAg inhibition PAPD7 Avg” value [1] does the source give for “221_1 (ATTTATCAACTTCCACC; gapmer 2-11-4: modified flank nucleosides, DNA gap, modification type and linkages not given here)” here?
A: −36.4%

Q: “224_1 (TCACAGACAAGCACCAA; gapmer 4-11-2: modified flank nucleosides, DNA gap, modification type and linkages not given here)” was tested. Which “% HBsAg inhibition PAPD7 Avg” value [1] did it give?
A: −22.1%

Q: For “229_1 (AGTAAACCACTGTCCA; sugars from the 5' end l2 d11 l3, backbone and methylation of C not given here)”, which “HBsAg inhibition, in words” value (20 μM, 11 days) is on record?
A: clear HBsAg inhibition

Q: What about the “% HBsAg inhibition PAPD7 Avg” value [1] of the same substance?
A: 60.5%

Q: What about the “% HBsAg inhibition PAPD7 Avg” value [2] of the same substance?
A: 60.5%

Q: “232_1 (CGATTTTATCACCAACA; sugars from the 5' end l4 d11 l2, backbone and methylation of C not given here)” was tested. Which “% HBsAg inhibition PAPD7 Avg” value [1] did it give?
A: −48.3%

Q: What about the “% HBsAg inhibition PAPD7 Avg” value [2] of the same substance?
A: −48.3%

Q: Which “% HBsAg inhibition PAPD7 Avg” value [1] does the source give for “239_1 (TGGTAAACACTGGGC; sugars from the 5' end l2 d11 l2, backbone and methylation of C not given here)” here?
A: −31.6%

Q: What does the source list for “244_1 (CAGTTTTATGCTAATCA; sugars from the 5' end l4 d11 l2, backbone and methylation of C not given here)”?
A: % HBsAg inhibition PAPD7 Avg [1]: −26.9%; % HBsAg inhibition PAPD7 Avg [2]: −26.9%
